This passage reports IC50 results from patent US20240279237A1, “FUSED BICYCLIC HETEROARYL COMPOUNDS USEFUL AS NLRP3 INHIBITORS” (Hoffmann-La Roche Inc., priority 2021, published 2024).

Counter-ions that a name gives are not always drawn.

The target in this test is T1, NLRP3 (Homo sapiens, UniProt Q96P20).
T1 construct: Seed THP-1 cells (25,000 cells/well) containing 1.0 μg/ml LPS in 40 μl of RPMI medium; host or cells: THP-1 cells
The test is described as follows: THP-1 Cells Pyroptosis Assay. It counts as cell-based. As to conditions: THP-1 cells with 1.0 μg/ml LPS; compound 3 hours; nigericin 5 μM 1 hr; resazurin readout. A digest of the protocol: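 THP-1 cells in serum-free RPMI primed with LPS (1 μg/ml FAC), incubated with compound 3 h at 37 °C, then nigericin (5 μM FAC) for 1 h. Supernatant removed after spin; viability read by resazurin (100 μM FAC) reduction after a further 1-2 h at 37 °C.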

T1 sequence (Q96P20 whole entry): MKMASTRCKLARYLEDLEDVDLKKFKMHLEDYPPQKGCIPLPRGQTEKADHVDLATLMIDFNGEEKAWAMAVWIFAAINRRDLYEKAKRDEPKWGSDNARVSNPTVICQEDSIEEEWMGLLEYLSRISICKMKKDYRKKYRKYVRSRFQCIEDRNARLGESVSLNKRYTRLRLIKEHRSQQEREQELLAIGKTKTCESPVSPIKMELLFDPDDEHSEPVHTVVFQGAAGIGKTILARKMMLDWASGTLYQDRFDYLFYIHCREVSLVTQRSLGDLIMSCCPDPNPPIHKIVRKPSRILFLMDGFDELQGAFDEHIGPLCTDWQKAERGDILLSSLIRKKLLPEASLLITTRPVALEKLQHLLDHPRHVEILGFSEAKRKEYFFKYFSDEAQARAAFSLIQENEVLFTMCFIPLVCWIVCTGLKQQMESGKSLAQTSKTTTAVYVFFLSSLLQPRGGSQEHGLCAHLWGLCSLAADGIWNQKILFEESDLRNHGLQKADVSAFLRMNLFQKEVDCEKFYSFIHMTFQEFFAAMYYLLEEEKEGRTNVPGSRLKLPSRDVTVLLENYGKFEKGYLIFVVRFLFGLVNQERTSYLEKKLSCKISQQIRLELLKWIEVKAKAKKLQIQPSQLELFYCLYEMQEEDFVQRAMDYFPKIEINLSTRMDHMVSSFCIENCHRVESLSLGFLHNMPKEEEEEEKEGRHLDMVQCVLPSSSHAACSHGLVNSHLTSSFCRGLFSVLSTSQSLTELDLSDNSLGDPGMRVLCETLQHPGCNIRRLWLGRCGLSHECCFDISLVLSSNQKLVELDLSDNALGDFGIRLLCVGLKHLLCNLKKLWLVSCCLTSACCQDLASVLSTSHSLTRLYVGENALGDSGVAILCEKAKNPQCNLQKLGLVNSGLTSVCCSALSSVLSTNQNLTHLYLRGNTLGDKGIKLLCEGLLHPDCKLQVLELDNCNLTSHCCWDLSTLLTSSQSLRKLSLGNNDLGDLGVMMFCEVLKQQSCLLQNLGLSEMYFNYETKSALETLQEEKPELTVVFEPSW

In the case of `CCN1CCC[C@@H](Nc2nc3nc(-c4c(C)cc(C(F)(F)F)cc4O)cc(N(C)C)c3o2)C1` [Example 116, 2-[7-(Dimethylamino)-2-[[(3R)-1-ethyl-3-piperidyl]amino]oxazolo[4,5-b]pyridin-5-yl]-3-methyl-5-(trifluoromethyl)phenol], the IC50 is 6.9 nM.
With `Cc1cc(Cl)cc(O)c1-c1cc(N2CCCC2=O)c2oc(N[C@@H]3CCCN(C)C3)nc2n1` (racemic) [Example 60, 1-[5-(4-Chloro-2-hydroxy-6-methyl-phenyl)-2-[[rac-(3R)-1-methyl-3-piperidyl]amino]oxazolo[4,5-b]pyridin-7-yl]pyrrolidin-2-one], the IC50 turned out to be 17.9 nM.
In the case of `Cc1cc(C(F)(F)F)cc(O)c1-c1ccc2oc(C3CCC(=O)NC3)nc2n1` (racemic) [Example 9, (rac)-5-(5-(2-Hydroxy-6-methyl-4-(trifluoromethyl)phenyl)oxazolo[4,5-b]pyridin-2-yl) piperidin-2-one] it was 15.3 nM.
In the case of `Cc1cc(C#N)cc(O)c1-c1ccc2oc(N[C@@H]3CCCN(C)C3)nc2n1` [Example 26, 3-Hydroxy-5-methyl-4-[2-[[(3R)-1-methyl-3-piperidyl]amino]oxazolo[4,5-b]pyridin-5-yl]benzonitrile] it was 2.8 nM; in that of `CCN1CCC2CCN(c3nc4nc(-c5c(C)cc(C#N)cc5O)ccc4o3)C2C1` (single isomer, unassigned) [Example 72B, 4-[2-[(3aR,7aS)-6-ethyl-3,3a,4,5,7,7a-hexahydro-2H-pyrrolo[2,3-c]pyridin-1-yl]oxazolo[4,5-b]pyridin-5-yl]-3-hydroxy-5-methyl-benzonitrile or 4-[2-[(3aS,7aR)-6-Ethyl-3,3a,4,5,7,7a-hexahydro-2H-pyrrolo[2,3-c]pyridin-1-yl]oxazolo[4,5-b]pyridin-5-yl]-3-hydroxy-5-methyl-benzonitrile], 310 nM; in that of `Cc1cc(C(F)(F)F)cc(O)c1-c1ccc2oc(NC34CCC(CC3)N(C)C4)nc2n1` [Example 120, 3-Methyl-2-[2-[(2-methyl-2-azabicyclo[2.2.2]octan-4-yl)amino]oxazolo[4,5-b]pyridin-5-yl]-5-(trifluoromethyl)phenol], 108 nM.
With `CCN1CCC[C@@H](Nc2nc3ccc(-c4c(C)cc(Cl)cc4O)nc3[nH]2)C1` [Example 136, 5-Chloro-2-[2-[[(3R)-1-ethyl-3-piperidyl]amino]-3H-imidazo[4,5-b]pyridin-5-yl]-3-methyl-phenol], the IC50 turned out to be 1 nM. This IC50 lies about 110-fold lower than the previous one.
As for `CCN1C[C@H](O)C[C@@H](Nc2nc3nc(-c4c(C)cc(C#N)cc4O)ccc3o2)C1` [Example 71, 4-[2-[[(3R,5R)-1-Ethyl-5-hydroxy-3-piperidyl]amino]oxazolo[4,5-b]pyridin-5-yl]-3-hydroxy-5-methyl-benzonitrile], the figure is 1.1 nM.
In the case of `Cc1cc(Cl)cc(O)c1-c1ccc2oc(N[C@@H]3CCCN(CCO)C3)nc2n1` [Example 93, 5-Chloro-2-[2-[[(3R)-1-(2-hydroxyethyl)-3-piperidyl]amino]oxazolo[4,5-b]pyridin-5-yl]-3-methyl-phenol] it was 2.1 nM; in that of `CCN1CCC2CCN(c3nc4nc(-c5c(C)cc(C#N)cc5O)ccc4o3)C2C1` (single isomer, unassigned) [Example 72A, 4-[2-[(3aS,7aR)-6-Ethyl-3,3a,4,5,7,7a-hexahydro-2H-pyrrolo[2,3-c]pyridin-1-yl]oxazolo[4,5-b]pyridin-5-yl]-3-hydroxy-5-methyl-benzonitrile or 4-[2-[(3aR,7aS)-6-ethyl-3,3a,4,5,7,7a-hexahydro-2H-pyrrolo[2,3-c]pyridin-1-yl]oxazolo[4,5-b]pyridin-5-yl]-3-hydroxy-5-methyl-benzonitrile], 1 nM; in that of `Cc1cc(C(F)(F)F)cc(O)c1-c1ccc2oc(N3CCNCC3)nc2n1` [Example 6, 3-Methyl-2-(2-piperazin-1-yloxazolo[4,5-b]pyridin-5-yl)-5-(trifluoromethyl)phenol formic acid salt], 86.6 nM.
